Values joined by “and” are separate entries in the source; they are usually repeats but may differ in a detail not shown here. Equal entries are not always repeated.
Key:
DLD1 Parental cells = experiment: γ-H2AX immunofluorescence; type: cell-based; conditions: DLD1-BRCA2-WT, 5 microM
Method: (§1) Cells were plated on six well plates with glass-coverslips and treated with RTX-161 day after plating. Four days after treatment, cells were fixed with 4% (v/v) paraformaldehyde for 20 min at 4 °C, washed with PBS, permeabilized with 0.5% (v/v) Triton X for 10 min and blocked with PBS containing 3% BSA. Cells were incubated with primary antibody overnight at 4 °C followed by 3x washes with PBS and then 1 h incubation with secondary antibody. The incubations were performed in the dark in a humidified chamber. After 3x washing in PBS for 3 min, slides were mounted in 20 ul Prolong antifade with DAPI (LifeTechnologies) to counterstain the nuclei. Cells were visualized and imaged using Nikon A1R Confocal microscope at a 63X objective magnification, and images were analyzed using ImageJ software. For quantification, >50 cells were counted for all conditions from three independent experiments. The primary antibody used for IF was rabbit anti-gamma H2AX [p Ser139] antibody (Bethyl Lab #A700-053) 1:500 dilution in 1% BSA in PBS. The secondary antibody was Goat anti-Rabbit IgG (H + L) Secondary Antibody, DyLight 488 (Thermo #35552) 1:2000 dilution in 1% BSA in PBS.

DLD1 BRCA2 -/- cells = experiment: γ-H2AX immunofluorescence; type: cell-based
Method: as §1

HCT116 BRCA2 -/- cells = experiment: Clonogenic assay; type: cell-based; conditions: for Average number of colonies counted / Normalized colonies (% normalized to control): per experiment
How it was run: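 Cells seeded at low density (300–1000 per well, by plate size and genotype), medium changed every 2 days, colonies grown 10–12 days. Fixed in water:ethanol:acetic acid, stained with 0.5% crystal violet, then counted; IC50 from ≥3 independent experiments, mean ± SEM.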

Fl-Polθ:DNA/DNA complex = target: T1, Fl-Polθ:DNA/DNA complex (Homo sapiens, UniProt O75417); experiment: EcoRI endonuclease protection assay; type: biochemical;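 as to i+1 (%) (15 nt), replicates #1-#3: i+1 is one-nucleotide extended DNA within post-catalytic complexes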
T1 construct: recombinant human full-length Polθ (Fl-Polθ); made in house
T1 sequence (O75417 whole entry, one chain of several): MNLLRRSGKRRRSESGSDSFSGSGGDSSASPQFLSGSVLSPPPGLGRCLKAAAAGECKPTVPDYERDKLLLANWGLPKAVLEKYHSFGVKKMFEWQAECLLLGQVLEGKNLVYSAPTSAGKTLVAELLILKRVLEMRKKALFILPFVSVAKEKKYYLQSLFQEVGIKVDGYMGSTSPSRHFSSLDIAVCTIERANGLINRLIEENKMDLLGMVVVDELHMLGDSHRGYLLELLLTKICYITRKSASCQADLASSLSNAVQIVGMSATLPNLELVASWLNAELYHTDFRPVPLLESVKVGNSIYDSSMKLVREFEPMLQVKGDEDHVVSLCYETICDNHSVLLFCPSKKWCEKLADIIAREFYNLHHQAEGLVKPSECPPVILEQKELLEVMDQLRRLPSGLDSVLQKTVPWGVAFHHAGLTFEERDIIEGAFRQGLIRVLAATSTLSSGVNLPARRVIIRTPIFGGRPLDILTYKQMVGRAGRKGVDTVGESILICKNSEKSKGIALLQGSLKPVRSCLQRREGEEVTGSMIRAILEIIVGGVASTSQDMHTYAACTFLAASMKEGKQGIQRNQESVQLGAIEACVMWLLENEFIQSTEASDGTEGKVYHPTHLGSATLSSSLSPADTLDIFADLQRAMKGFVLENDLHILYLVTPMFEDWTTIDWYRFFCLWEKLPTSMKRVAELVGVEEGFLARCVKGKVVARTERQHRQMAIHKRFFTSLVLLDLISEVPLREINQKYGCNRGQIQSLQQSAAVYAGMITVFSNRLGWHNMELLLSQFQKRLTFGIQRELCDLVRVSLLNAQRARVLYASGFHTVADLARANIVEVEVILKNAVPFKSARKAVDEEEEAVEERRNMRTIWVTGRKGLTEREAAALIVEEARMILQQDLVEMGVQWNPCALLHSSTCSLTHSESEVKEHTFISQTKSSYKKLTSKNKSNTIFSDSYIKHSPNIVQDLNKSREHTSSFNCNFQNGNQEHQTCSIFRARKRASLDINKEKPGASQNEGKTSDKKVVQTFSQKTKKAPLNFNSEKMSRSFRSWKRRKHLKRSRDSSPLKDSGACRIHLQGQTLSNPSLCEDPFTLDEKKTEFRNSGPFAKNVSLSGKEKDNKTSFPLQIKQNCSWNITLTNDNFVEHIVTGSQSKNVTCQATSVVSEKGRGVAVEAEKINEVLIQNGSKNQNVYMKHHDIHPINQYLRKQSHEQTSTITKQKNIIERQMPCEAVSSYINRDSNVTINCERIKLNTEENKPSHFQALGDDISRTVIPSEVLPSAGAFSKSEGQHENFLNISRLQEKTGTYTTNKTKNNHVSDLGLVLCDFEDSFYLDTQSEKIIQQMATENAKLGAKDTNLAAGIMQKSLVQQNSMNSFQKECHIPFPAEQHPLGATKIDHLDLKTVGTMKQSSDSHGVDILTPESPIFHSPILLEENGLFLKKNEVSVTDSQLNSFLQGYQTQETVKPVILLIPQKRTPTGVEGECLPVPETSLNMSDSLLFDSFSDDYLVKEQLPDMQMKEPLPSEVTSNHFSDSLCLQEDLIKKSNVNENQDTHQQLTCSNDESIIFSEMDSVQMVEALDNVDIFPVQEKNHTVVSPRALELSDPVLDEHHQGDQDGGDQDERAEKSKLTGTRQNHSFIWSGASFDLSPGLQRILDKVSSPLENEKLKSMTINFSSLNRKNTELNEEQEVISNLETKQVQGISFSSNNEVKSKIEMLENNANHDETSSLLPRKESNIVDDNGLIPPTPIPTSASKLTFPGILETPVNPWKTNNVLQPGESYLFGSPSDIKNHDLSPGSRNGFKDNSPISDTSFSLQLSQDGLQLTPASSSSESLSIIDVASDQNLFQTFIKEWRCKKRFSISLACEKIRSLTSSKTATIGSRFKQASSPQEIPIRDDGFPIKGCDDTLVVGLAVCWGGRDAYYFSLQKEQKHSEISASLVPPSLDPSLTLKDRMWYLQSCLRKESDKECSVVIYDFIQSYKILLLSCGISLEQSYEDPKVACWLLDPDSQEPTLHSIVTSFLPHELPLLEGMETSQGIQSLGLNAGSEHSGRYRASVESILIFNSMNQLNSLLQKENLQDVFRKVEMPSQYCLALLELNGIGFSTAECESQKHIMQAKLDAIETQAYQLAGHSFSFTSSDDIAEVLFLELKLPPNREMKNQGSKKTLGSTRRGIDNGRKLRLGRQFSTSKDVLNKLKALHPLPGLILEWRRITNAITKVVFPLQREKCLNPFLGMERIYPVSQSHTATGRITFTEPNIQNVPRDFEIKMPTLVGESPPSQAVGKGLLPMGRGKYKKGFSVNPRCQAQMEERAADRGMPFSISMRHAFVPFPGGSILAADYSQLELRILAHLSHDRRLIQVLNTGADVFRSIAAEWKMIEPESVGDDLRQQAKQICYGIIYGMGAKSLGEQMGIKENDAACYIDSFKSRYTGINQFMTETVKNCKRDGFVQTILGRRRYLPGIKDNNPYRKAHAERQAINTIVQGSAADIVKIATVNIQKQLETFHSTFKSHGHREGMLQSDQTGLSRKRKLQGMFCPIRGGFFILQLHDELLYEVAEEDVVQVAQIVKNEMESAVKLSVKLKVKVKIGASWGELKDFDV
Method: (§2) EcoRI and KpnI endonucleases assay: 25 nM 5’-^32P radiolabeled primer-template DNA Sc15-EcoRI (5’-^32P LM3-EcoRI/LM4-EcoRI) or Sc19-KpnI (5’-^32P LM11-Kpn/LM12-Kpn) in reaction buffer (25 mM Tris-HCl pH 7.5, 10 mM MgCl2, 10% glycerol, 0.1 mg/mL BSA, 0,01% igepal, 1 mM DTT) were incubated in the presence or in the absence of 50 nM Polθ-pol, 100 μM ddCTP, and 10 μM inhibitors, as indicated, for 5 min at room temperature. Next, 0.08 U/μL EcoRI or KpnI together with 500 nM “trapping” DNA Sc14 (RP559/RP702) were added and incubated for further 0–40 min at 30 °C as indicated. 10 nM PolθΔcen and FL-Polθ and 25 nM Sc15-EcoRI and Sc19-Kpn were probed with 0.04 U/μL EcoRI or KpnI (both from New England Biolabs) using the same conditions. Reactions were stopped by addition of formamide loading buffer with 50 mM EDTA, resolved in denaturing 20% urea PAAG and analyzed using Typhoon PhosphorImager (GE Amersham). Quantification was done in ImageQuant TL software. All quantified experiments were performed in triplicates and plotted as mean with ± s.d using GraphPad Prism 9 software.

PolθΔcen:DNA/DNA complex = experiment: EcoRI endonuclease protection assay; type: biochemical; conditions: for i (%), normalized to 100%, ave(%) / i (%), replicates: 14 nt i; for i+1 (%) normalized to 100%, ave(%) / i+1 (%), replicates: 15 nt i+1;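 as to i (%), replicates: i is primer-template DNA within pre-catalytic complexes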;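 as to i+1 (%), replicates: i+1 is one-nucleotide extended DNA within post-catalytic complexes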
Method: as §2

[1] = Eco+PolqDcen+ddC+RTx152, 2.5min

CN(C(=O)Oc1c(N2CCN(CCO)C2=O)cc(C(F)(F)F)cc1C(F)(F)F)c1ccc(F)cc1 [RTx-161]
Percent of positive nuclei, Average (DLD1 Parental cells; Average of Expt 1-3 (DMSO 4.28755)): 10.2071% | Percent of positive nuclei (3 or more than 3 g-H2AX foci) (DLD1 Parental cells; single Experiments 1-3): 11.5942% and 12.5984% and 6.429% | Percent of positive nuclei, Average (DLD1 BRCA2 -/- cells; DLD1- BRCA2-null, 5 microM, Average of Expt 1-3 (DMSO 14.884)): 48.7855% | Percent of positive nuclei (3 or more than 3 g-H2AX foci) (DLD1 BRCA2 -/- cells; DLD1- BRCA2-null, 5 microM, single Experiments 1-3): 47.2973% and 43.3071% and 55.7522% | DNA damage (γ-H2AX phosphorylation) (DLD1 BRCA2 -/- cells; immunofluorescence and Western blot, versus parental): selectively caused DNA damage | IC50 (HCT116 BRCA2 -/- cells; Homo sapiens, HCT-116, HCT116 cells, label beside BRCA2-null curve, read-out: IC50 clonogenic survival): ~1000 nM | Normalized colonies, pooled Average of 3 experiments (HCT116 BRCA2 -/- cells; RTX-161 0.5 micro M): 92.0788% | Average number of colonies counted (HCT116 BRCA2 -/- cells; RTX-161 0.5 micro M): 70 and 37.3333 and 38 | Normalized colonies (% normalized to control) (HCT116 BRCA2 -/- cells; RTX-161 0.5 micro M): 74.7331% and 113.131% and 88.3721% | Normalized colonies, pooled Average of 3 experiments (HCT116 BRCA2 -/- cells; RTX-161 1 micro M): 62.4064% | Average number of colonies counted (HCT116 BRCA2 -/- cells; RTX-161 1 micro M): 46.6667 and 26.6667 and 24.3333 | Normalized colonies (% normalized to control) (HCT116 BRCA2 -/- cells; RTX-161 1 micro M): 49.8221% and 80.8081% and 56.5891% | Normalized colonies, pooled Average of 3 experiments (HCT116 BRCA2 -/- cells; RTX-161 2 micro M): 32.1189% | Normalized colonies (% normalized to control) (HCT116 BRCA2 -/- cells; RTX-161 2 micro M): 33.0961% and 35.3535% and 27.907% | Normalized colonies, pooled Average of 3 experiments (HCT116 BRCA2 -/- cells; RTX-161 4 micro M): 16.8132% | Normalized colonies, pooled Average of 3 experiments (HCT116 BRCA2 -/- cells; RTX-161 8 micro M): 8.53% | combination with Rucaparib (HCT116 BRCA2 -/- cells; clonogenic survival): strong synergistic activity | combination with Olaparib (HCT116 BRCA2 -/- cells; clonogenic survival, Combenefit synergy): strong synergistic activity | selective killing of BRCA2-null HCT116 cells (HCT116 BRCA2 -/- cells; colony survival, versus BRCA2-WT): selective killing

CN1CCN(c2cc(C(F)(F)F)cc(C(F)(F)F)c2OC(=O)N(C)c2ccc(F)cc2)C1=O [RTx-152]
EcoRI cleavage %, ave (Fl-Polθ:DNA/DNA complex; Eco+FL+ddC+RTx152, 2.5min): 15.4% | EcoRI cleavage %, replicates #1-#3 (Fl-Polθ:DNA/DNA complex; Eco+FL+ddC+RTx152, 2.5min): 16.1% and 15.5% and 14.7% | EcoRI cleavage %, ave (Fl-Polθ:DNA/DNA complex; Eco+FL+ddC+RTx152, 5min): 27.7% | EcoRI cleavage %, replicates #1-#3 (Fl-Polθ:DNA/DNA complex; Eco+FL+ddC+RTx152, 5min): 28.7% and 27.4% and 27.0% | EcoRI cleavage %, ave (Fl-Polθ:DNA/DNA complex; Eco+FL+ddC+RTx152, 10min): 38.7% | EcoRI cleavage %, replicates #1-#3 (Fl-Polθ:DNA/DNA complex; Eco+FL+ddC+RTx152, 10min): 39.6% and 39.0% and 37.5% | i (%) (14 nt), replicates #1-#3 (Fl-Polθ:DNA/DNA complex; FL+ddC+152, 2.5min): 45.9% and 45.3% and 45.1% | i (%), normalized to 100%, ave(%) (Fl-Polθ:DNA/DNA complex; FL+ddC+152, 2.5min): 100.0% | i+1 (%) (15 nt), replicates #1-#3 (Fl-Polθ:DNA/DNA complex; FL+ddC+152, 2.5min): 24.5% and 25.2% and 24.4% | i+1 (%) normalized to 100%, ave(%) (Fl-Polθ:DNA/DNA complex; FL+ddC+152, 2.5min): 100.0% | i (%) (14 nt), replicates #1-#3 (Fl-Polθ:DNA/DNA complex; FL+ddC+152, 5min): 32.7% and 32.3% and 32.8% | i (%), normalized to 100%, ave(%) (Fl-Polθ:DNA/DNA complex; FL+ddC+152, 5min): 71.7% | i+1 (%) (15 nt), replicates #1-#3 (Fl-Polθ:DNA/DNA complex; FL+ddC+152, 5min): 24.7% and 27.0% and 24.6% | i+1 (%) normalized to 100%, ave(%) (Fl-Polθ:DNA/DNA complex; FL+ddC+152, 5min): 103.0% | i (%) (14 nt), replicates #1-#3 (Fl-Polθ:DNA/DNA complex; FL+ddC+152, 10min): 19.6% and 20.0% and 17.7% | i (%), normalized to 100%, ave(%) (Fl-Polθ:DNA/DNA complex; FL+ddC+152, 10min): 42.0% | i+1 (%) (15 nt), replicates #1-#3 (Fl-Polθ:DNA/DNA complex; FL+ddC+152, 10min): 27.5% and 27.2% and 25.6% | i+1 (%) normalized to 100%, ave(%) (Fl-Polθ:DNA/DNA complex; FL+ddC+152, 10min): 108.3% | post-catalytic complexes (i + 1), EcoRI cleavage (Fl-Polθ:DNA/DNA complex; Fl-Polθ): fully resistant to EcoRI cleavage | EcoRI cleavage %, ave (PolθΔcen:DNA/DNA complex; [1]): 9.7% | EcoRI cleavage %, replicates (PolθΔcen:DNA/DNA complex; [1]): 11.0% and 8.0% and 10.0% | EcoRI cleavage %, ave (PolθΔcen:DNA/DNA complex; Eco+PolqDcen+ddC+RTx152, 5min): 14.0% | EcoRI cleavage %, replicates (PolθΔcen:DNA/DNA complex; Eco+PolqDcen+ddC+RTx152, 5min): 17.0% and 12.0% and 13.0% | EcoRI cleavage %, ave (PolθΔcen:DNA/DNA complex; Eco+PolqDcen+ddC+RTx152, 10min): 16.7% | EcoRI cleavage %, replicates (PolθΔcen:DNA/DNA complex; Eco+PolqDcen+ddC+RTx152, 10min): 21.0% and 14.0% and 15.0% | i (%), normalized to 100%, ave(%) (PolθΔcen:DNA/DNA complex; PolqDcen+ddC+152, 2.5 min): 100.0% | i (%), replicates (PolθΔcen:DNA/DNA complex; PolqDcen+ddC+152, 2.5 min): 50.3% and 44.4% and 42.8% | i+1 (%) normalized to 100%, ave(%) (PolθΔcen:DNA/DNA complex; PolqDcen+ddC+152, 2.5 min): 100.0% | i+1 (%), replicates (PolθΔcen:DNA/DNA complex; PolqDcen+ddC+152, 2.5 min): 20.4% and 24.4% and 22.1% | i (%), normalized to 100%, ave(%) (PolθΔcen:DNA/DNA complex; PolqDcen+ddC+152, 5 min): 86.1% | i (%), replicates (PolθΔcen:DNA/DNA complex; PolqDcen+ddC+152, 5 min): 40.2% and 38.5% and 39.7% | i+1 (%) normalized to 100%, ave(%) (PolθΔcen:DNA/DNA complex; PolqDcen+ddC+152, 5 min): 111.1% | i+1 (%), replicates (PolθΔcen:DNA/DNA complex; PolqDcen+ddC+152, 5 min): 23.8% (2×) and 26.6% | i (%), normalized to 100%, ave(%) (PolθΔcen:DNA/DNA complex; PolqDcen+ddC+152, 10 min): 66.5% | i (%), replicates (PolθΔcen:DNA/DNA complex; PolqDcen+ddC+152, 10 min): 33.3% and 25.6% and 32.6% | i+1 (%) normalized to 100%, ave(%) (PolθΔcen:DNA/DNA complex; PolqDcen+ddC+152, 10 min): 137.8% | i+1 (%), replicates (PolθΔcen:DNA/DNA complex; PolqDcen+ddC+152, 10 min): 25.8% and 38.6% and 27.7%

Reference: PMC10997755, “Discovery of a small-molecule inhibitor that traps Polθ on DNA and synergizes with PARP inhibitors” (Nature Communications, 2024)
